Data: ChEMBL document CHEMBL1201862, “PubChem BioAssay data set” (2004)
Calls of active or inactive are those of the source.

Assays:
Large T antigen = Large T antigen (Simian virus 40, UniProt P03070); format: functional, Betapolyomavirus macacae;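 note: Confirmatory-stage PubChem screen for compounds that inhibit SV40 T antigen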
Protein skinhead-1 = biological target: T1, Protein skinhead-1 (Caenorhabditis elegans, UniProt P34707); format: functional
T1 sequence (P34707 whole entry): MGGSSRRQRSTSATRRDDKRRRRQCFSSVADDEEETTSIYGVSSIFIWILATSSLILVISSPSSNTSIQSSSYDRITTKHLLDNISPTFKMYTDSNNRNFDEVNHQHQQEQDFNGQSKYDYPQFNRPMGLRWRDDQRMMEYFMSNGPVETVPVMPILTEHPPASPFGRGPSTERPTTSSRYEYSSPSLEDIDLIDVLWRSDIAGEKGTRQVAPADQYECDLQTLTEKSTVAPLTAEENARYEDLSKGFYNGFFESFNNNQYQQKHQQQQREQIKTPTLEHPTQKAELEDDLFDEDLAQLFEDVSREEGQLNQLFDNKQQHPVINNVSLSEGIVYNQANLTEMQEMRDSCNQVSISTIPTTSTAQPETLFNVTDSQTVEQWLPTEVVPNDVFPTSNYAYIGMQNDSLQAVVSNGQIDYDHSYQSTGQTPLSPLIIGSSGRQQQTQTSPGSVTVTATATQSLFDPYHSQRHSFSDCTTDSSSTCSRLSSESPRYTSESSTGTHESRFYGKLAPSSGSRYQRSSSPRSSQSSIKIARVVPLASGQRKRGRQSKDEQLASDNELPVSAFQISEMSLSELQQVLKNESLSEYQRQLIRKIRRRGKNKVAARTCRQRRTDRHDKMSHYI

Genome polyprotein = Genome polyprotein (dengue virus type 2, UniProt P29990); assay: Dengue-2 NS5 methyltransferase inhibitors, primary screen, biochemical, confirmation dose response (AID 588689); format: functional
[1] = biological target: FAD-linked sulfhydryl oxidase ALR (Homo sapiens, UniProt P55789); assay: inhibitors of human ALR sulfhydryl oxidase, dose response, biochemical, H2O2 detection, luminescence, cherry-pick (AID 493248)
[2] = biological target: T2, Rac GTPase-activating protein 1 (Homo sapiens, UniProt Q9H0H5); assay: MgcRacGAP GTPase-activating activity inhibitors, confirmation, biochemical, ADP Hunter fluorescence, primary and confirmatory (AID 624330); format: functional
T2 sequence (Q9H0H5 whole entry): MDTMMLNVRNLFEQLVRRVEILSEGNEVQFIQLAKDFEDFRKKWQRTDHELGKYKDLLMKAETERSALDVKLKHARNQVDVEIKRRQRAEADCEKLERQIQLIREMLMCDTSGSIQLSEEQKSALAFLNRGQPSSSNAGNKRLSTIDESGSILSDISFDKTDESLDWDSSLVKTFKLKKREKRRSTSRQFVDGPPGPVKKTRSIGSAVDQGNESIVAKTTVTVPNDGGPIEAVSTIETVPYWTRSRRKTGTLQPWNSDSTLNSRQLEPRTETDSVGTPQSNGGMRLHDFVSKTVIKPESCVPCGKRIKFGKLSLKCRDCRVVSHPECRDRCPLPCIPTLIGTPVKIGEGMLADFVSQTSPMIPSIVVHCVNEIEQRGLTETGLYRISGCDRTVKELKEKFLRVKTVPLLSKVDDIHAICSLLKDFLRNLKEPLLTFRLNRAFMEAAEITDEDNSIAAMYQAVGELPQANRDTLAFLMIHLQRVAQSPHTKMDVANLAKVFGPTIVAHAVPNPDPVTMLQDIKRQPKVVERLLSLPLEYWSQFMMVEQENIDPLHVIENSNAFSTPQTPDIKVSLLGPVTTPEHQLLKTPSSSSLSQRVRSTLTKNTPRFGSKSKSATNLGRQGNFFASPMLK

[3] = biological target: T3, Replicative DNA helicase DnaB (Mycobacterium tuberculosis, UniProt P9WMR3); assay: DnaB intein splicing inhibitors, dose response, biochemical, cell-free fluorescence (AID 449749); format: functional
T3 sequence (P9WMR3 whole entry): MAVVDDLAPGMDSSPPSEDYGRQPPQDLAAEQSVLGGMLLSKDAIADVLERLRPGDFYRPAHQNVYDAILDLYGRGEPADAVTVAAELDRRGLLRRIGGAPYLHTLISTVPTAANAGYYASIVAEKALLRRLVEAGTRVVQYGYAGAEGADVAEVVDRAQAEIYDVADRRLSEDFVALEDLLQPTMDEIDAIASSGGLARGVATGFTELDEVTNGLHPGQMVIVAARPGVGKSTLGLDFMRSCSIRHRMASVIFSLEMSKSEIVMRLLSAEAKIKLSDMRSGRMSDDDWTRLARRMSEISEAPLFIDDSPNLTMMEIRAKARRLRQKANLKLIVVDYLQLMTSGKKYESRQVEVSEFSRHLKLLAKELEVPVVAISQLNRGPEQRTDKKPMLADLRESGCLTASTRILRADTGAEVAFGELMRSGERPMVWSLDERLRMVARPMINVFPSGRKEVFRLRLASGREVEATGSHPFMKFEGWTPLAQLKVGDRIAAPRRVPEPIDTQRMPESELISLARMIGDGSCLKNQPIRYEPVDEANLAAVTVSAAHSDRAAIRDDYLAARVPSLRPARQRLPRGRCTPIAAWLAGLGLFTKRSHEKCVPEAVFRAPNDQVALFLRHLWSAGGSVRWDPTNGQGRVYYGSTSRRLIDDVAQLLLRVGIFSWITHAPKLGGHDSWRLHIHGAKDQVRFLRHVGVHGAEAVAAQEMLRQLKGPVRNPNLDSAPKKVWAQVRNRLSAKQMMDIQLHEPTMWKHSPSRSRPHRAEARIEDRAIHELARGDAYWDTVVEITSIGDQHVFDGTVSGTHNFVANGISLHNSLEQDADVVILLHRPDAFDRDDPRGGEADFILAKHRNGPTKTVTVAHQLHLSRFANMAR

Protein RecA = biological target: T4, Protein RecA (Mycobacterium tuberculosis, UniProt P9WHJ3); assay: Fluorescence Cell-Free Homogeneous Dose Retest to Identify Inhibitors of RecA-Intein Splicing Activity. [Related pubchem assays (depositor defined):AID2097, AID2223, AID489010, AID492950]; format: functional
T4 sequence (P9WHJ3 whole entry): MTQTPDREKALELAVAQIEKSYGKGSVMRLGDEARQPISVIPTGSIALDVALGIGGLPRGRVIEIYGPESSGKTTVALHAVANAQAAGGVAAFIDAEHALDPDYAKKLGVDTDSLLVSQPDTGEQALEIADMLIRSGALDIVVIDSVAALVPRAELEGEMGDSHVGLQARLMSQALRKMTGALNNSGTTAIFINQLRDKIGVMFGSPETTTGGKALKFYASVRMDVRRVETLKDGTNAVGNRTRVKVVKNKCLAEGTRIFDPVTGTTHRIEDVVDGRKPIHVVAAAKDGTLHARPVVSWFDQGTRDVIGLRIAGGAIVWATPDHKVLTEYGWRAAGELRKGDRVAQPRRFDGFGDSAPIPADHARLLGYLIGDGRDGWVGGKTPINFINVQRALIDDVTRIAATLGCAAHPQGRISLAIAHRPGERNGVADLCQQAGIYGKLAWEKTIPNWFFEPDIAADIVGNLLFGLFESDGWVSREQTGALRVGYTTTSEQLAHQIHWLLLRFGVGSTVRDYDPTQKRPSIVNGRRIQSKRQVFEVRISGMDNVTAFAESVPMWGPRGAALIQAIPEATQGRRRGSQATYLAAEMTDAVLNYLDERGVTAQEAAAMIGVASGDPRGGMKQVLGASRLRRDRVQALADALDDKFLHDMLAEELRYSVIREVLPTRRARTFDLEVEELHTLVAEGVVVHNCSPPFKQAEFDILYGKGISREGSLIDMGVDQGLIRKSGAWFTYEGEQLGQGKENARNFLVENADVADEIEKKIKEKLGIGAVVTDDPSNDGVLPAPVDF

[4] = biological target: T5, RNA-binding protein pos-1 (Caenorhabditis elegans, UniProt G5EF15); assay: inhibitors of POS-1/mex-3 RNA binding, dose response, biochemical, fluorescence polarization (AID 1964);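 note: purified POS-1 fused to maltose binding protein made in E. coli; potency of compounds blocking POS-1 binding to fluorescent RNA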
T5 sequence (G5EF15 whole entry): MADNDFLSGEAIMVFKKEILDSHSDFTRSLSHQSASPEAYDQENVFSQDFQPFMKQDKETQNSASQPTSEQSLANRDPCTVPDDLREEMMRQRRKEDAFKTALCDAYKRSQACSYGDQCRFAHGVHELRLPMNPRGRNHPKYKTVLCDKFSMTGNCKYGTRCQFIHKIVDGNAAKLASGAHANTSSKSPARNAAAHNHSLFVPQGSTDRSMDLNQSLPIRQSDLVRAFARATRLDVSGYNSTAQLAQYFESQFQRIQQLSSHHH

[5] = Luminescence Cell-Based Dose Confirmation HTS to Identify Activators of 5'UTR Stem-Loop Driven Alpha-Synuclein mRNA Translation in H4 Neuroglioblastoma Cells. [Related pubchem assays: 1829 (Project Summary), 1814 (Primary HTS)]; format: functional
[6] = Luminescence Cell-Based Dose Response HTS to Identify Activators of Luciferase Translation or Activity in H4 […] Cells. [Related pubchem assays: 1829 (Project Summary), 1814 (Primary HTS)]; format: functional
H4 = assay: Luminescence Cell-Based Dose Response HTS to Identify Activators of 5'UTR Stem-Loop Driven Prion Protein mRNA Translation in H4 Neuroglioblastoma Cells. [Related pubchem assays: 1829 (Project Summary), 1814 (Primary HTS)]; format: functional; conditions: Homo sapiens
[7] = biological target: T6, Zinc finger protein mex-5 (Caenorhabditis elegans, UniProt Q9XUB2); assay: MEX-5/TCR-2 RNA interaction inhibitors, dose response, biochemical, C. elegans, fluorescence polarization (AID 1960)
T6 sequence (Q9XUB2 whole entry): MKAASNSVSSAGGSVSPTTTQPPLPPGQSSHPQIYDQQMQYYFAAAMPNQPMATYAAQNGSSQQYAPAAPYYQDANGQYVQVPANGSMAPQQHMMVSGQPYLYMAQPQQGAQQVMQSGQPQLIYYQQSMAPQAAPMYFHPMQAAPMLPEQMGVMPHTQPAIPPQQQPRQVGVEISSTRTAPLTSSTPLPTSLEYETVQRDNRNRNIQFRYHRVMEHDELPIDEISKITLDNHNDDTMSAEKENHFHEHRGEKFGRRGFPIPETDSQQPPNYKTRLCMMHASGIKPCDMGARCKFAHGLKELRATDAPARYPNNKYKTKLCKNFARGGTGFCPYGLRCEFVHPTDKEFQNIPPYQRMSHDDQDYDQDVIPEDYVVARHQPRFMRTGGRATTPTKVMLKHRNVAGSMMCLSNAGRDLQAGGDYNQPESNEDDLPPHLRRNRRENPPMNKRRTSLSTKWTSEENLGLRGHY

[8] = biological target: T7, Corticotropin-releasing factor receptor 2/Corticotropin-releasing factor-binding protein (Homo sapiens, UniProt P24387+Q13324); assay: activators of CRF receptor 2 with binding protein – uHTS hits, confirmation (AID 602473); format: functional; conditions: read-out: EC50_Mean
T7 sequence (Q13324 whole entry): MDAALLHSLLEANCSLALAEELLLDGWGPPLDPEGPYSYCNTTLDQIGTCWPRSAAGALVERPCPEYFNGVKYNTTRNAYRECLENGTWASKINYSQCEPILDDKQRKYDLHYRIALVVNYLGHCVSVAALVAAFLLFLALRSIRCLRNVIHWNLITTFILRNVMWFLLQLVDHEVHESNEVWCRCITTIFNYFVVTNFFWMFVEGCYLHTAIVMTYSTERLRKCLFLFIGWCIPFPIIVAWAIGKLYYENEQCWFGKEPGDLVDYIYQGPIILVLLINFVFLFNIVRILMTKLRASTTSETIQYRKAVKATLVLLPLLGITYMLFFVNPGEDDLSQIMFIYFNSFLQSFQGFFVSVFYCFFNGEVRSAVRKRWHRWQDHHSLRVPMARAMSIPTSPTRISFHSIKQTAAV
T7 sequence (P24387 whole entry): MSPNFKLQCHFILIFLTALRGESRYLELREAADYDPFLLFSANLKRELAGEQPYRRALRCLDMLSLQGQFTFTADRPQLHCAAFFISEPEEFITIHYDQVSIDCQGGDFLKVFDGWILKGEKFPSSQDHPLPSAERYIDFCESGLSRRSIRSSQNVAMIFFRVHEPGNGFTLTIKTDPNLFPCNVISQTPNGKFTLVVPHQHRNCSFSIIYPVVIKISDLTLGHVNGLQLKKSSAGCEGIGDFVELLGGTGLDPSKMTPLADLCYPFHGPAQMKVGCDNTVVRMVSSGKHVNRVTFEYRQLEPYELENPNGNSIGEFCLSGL

Large T antigen, sequence (P03070 whole entry): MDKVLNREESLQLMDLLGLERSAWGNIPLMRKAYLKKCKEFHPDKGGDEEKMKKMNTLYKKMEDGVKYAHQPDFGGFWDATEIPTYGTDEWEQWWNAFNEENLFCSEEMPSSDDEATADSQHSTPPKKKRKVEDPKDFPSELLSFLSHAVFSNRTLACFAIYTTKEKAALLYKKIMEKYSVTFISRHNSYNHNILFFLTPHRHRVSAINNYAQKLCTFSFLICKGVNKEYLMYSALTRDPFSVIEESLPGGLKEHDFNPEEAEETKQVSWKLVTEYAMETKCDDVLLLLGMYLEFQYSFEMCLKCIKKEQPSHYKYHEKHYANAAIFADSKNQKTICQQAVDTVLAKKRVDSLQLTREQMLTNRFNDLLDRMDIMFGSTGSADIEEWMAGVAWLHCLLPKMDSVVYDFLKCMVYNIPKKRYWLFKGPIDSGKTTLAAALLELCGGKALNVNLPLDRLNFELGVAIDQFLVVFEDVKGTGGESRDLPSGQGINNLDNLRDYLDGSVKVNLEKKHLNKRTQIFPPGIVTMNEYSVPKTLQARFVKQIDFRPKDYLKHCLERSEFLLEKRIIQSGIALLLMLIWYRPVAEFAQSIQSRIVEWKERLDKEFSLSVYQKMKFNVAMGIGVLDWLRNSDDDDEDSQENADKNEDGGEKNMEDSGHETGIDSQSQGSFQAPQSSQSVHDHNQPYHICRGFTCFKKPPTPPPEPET
Genome polyprotein, sequence (P29990 2492-3391 limits assumed): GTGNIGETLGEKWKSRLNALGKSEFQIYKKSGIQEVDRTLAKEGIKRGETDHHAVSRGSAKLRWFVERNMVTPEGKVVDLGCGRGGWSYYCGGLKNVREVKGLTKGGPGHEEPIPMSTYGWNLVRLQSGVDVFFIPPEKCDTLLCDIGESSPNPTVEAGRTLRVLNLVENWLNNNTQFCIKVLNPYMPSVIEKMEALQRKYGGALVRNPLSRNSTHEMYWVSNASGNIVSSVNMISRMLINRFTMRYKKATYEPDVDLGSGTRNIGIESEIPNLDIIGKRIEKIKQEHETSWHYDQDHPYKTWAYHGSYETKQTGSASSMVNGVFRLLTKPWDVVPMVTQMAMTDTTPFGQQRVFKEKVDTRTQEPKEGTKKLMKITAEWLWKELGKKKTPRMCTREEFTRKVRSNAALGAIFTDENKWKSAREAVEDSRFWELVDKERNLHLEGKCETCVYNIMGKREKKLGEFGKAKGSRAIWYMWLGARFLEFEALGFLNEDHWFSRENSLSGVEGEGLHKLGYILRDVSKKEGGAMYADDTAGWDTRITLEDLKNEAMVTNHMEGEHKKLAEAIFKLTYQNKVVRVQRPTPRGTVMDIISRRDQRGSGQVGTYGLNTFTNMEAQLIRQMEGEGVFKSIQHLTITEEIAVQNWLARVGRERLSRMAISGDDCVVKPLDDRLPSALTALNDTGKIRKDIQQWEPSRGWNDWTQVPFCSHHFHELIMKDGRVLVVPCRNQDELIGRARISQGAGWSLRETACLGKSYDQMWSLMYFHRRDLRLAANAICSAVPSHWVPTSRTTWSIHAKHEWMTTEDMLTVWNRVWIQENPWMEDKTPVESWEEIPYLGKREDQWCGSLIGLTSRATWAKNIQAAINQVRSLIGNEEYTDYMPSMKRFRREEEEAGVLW
FAD-linked sulfhydryl oxidase ALR, sequence (P55789 whole entry): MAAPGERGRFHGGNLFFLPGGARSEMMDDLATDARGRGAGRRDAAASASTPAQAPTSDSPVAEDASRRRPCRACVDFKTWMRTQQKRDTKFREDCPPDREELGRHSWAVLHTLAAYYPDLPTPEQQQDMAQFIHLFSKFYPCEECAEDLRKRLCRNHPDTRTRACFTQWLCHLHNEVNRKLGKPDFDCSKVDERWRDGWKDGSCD

## Clc1cc(NCc2cccs2)ccc1N1CCOCC1
Large T antigen
  IC50: 65.2 µM (active)
Protein skinhead-1
  IC50: > 100 µM (inactive)

## CN1C(=O)C(=Cc2ccccc2Oc2ccc(Cl)cc2)C(=O)N(C)C1=O
Genome polyprotein
  IC50: 41.5 µM (active)

## COc1ccc(NC2CCCN(C(=O)CCn3cccn3)C2)cc1 (stereo not drawn)
Large T antigen
  IC50: 9.68 µM (active)
[1]
  AC50: 2.78 µM (active)

## COc1cc(/C=N/NC(=O)c2cnccn2)ccc1O
Large T antigen
  IC50: 5.52 µM (active)
[2]
  IC50: 20.3 µM (active)

## CN(C)c1ccc(/C=C/c2cc[n+]([O-])cc2)cc1
Large T antigen
  IC50: 11.4 µM (active)

## O=C1C(Cl)=C(N2CCOCC2)C(=O)N1c1ccc(Br)cc1
[3]
  AC50: 4.11 µM (active)
Protein RecA
  EC50: 2.11 µM (active)
Genome polyprotein
  IC50: 36.2 µM (active)

## Cc1cccc(-n2c(C)cc(C=C3C(=O)c4ccccc4C3=O)c2C)c1
[4]
  EC50: 46.6 µM (active)
[5]
  EC50: 54.2 µM (active)
[6]
  EC50: 11.4 µM (active)
H4
  EC50: 7.1 µM (active)
[7]
  EC50: 34.7 µM (inconclusive)
[8]
  EC50: 12.9 µM (active)

## O=C(Nc1ccc(O)cc1)C1CCCO1 (stereo not drawn)
Large T antigen
  IC50: 28.1 µM (active)
